Test results as given in ChEMBL document CHEMBL1151576, “Synthesis of cyclohexyl analogs of restricticin” (Bioorg Med Chem Lett, 1994).
In brackets after ≈: the same amount, converted by molar mass.

Experiments:
Assay type in all cases: functional
Aspergillus fumigatus [1] = assay: In vitro antifungal activity against Aspergillus fumigatus CF1004 was determined at pH 7 for inoculum size of 1*10e4 cfu/ml by broth dilution method
Aspergillus fumigatus [2] = assay: In vitro antifungal activity against Aspergillus fumigatus CF1003 was determined at pH 7 for inoculum size of 1*10e4 cfu/ml by broth dilution method
Candida albicans [3] = assay: In vitro antifungal activity against Candida albicans CY3003 was determined at pH 7 for inoculum size of 1*10e4 cfu/ml by broth dilution method
Candida albicans [4] = assay: In vitro antifungal activity against Candida albicans CY1002 was determined at pH 7 for inoculum size of 1*10e4 cfu/ml by broth dilution method
Candida albicans [5] = assay: In vitro antifungal activity against Candida albicans CY1005 was determined at pH 7 for inoculum size of 1*10e4 cfu/ml by broth dilution method
Cryptococcus neoformans [6] = assay: In vitro antifungal activity against Cryptococcus neoformans CY1057 was determined at pH 7 for inoculum size of 1*10e4 cfu/ml by broth dilution method
Cryptococcus neoformans [7] = assay: In vitro antifungal activity against Cryptococcus neoformans CY1059 was determined at pH 7 for inoculum size of 1*10e4 cfu/ml by broth dilution method

CCc1ccc(CC[C@@H]2CCC(C)(C)[C@H](OC)[C@H]2Cn2ccnc2)cc1
IC80 (Aspergillus fumigatus [1]): 0.19 µg/mL (≈ 0.536 µM)
IC80 (Aspergillus fumigatus [2]): 0.37 µg/mL (≈ 1.04 µM)
IC80 (Candida albicans [3]): 0.0025 µg/mL (≈ 0.00705 µM)
IC80 (Candida albicans [4]): 0.059 µg/mL (≈ 0.166 µM)
IC80 (Candida albicans [5]): 0.012 µg/mL (≈ 0.0338 µM)
IC80 (Cryptococcus neoformans [6]): 0.12 µg/mL (≈ 0.338 µM)
IC80 (Cryptococcus neoformans [7]): 0.14 µg/mL (≈ 0.395 µM)

CCCCCCC/C=C/C[C@@H]1OC[C@H](C)[C@H](OC)[C@H]1COC(=O)CN
IC80 (Aspergillus fumigatus [1]): 0.52 µg/mL (≈ 1.46 µM)
IC80 (Aspergillus fumigatus [2]): 0.73 µg/mL (≈ 2.05 µM)
IC80 (Candida albicans [3]): 0.97 µg/mL (≈ 2.73 µM)
IC80 (Candida albicans [4]): 1.8 µg/mL (≈ 5.06 µM)
IC80 (Candida albicans [5]): 1.58 µg/mL (≈ 4.44 µM)
IC80 (Cryptococcus neoformans [6]): 2.19 µg/mL (≈ 6.16 µM)
IC80 (Cryptococcus neoformans [7]): 3.2 µg/mL (≈ 9 µM)

CCc1ccc(CC[C@@H]2CCC(C)(C)[C@H](OC)[C@H]2Cn2cncn2)cc1
IC80 (Aspergillus fumigatus [1]): > 200 µg/mL
IC80 (Aspergillus fumigatus [2]): > 200 µg/mL
IC80 (Candida albicans [3]): 0.012 µg/mL (≈ 0.0338 µM)
IC80 (Candida albicans [4]): 0.098 µg/mL (≈ 0.276 µM)
IC80 (Candida albicans [5]): 0.042 µg/mL (≈ 0.118 µM)
IC80 (Cryptococcus neoformans [6]): 0.82 µg/mL (≈ 2.31 µM)
IC80 (Cryptococcus neoformans [7]): 0.37 µg/mL (≈ 1.04 µM)

OC(Cn1cncn1)(Cn1cncn1)c1ccc(F)cc1F [FLUCONAZOLE]
IC80 (Aspergillus fumigatus [1]): 180 µg/mL (≈ 588 µM)
IC80 (Aspergillus fumigatus [2]): 200 µg/mL (≈ 653 µM)
IC80 (Candida albicans [3]): 1.1 µg/mL (≈ 3.59 µM)
IC80 (Candida albicans [4]): 2.6 µg/mL (≈ 8.49 µM)
IC80 (Candida albicans [5]): 2.8 µg/mL (≈ 9.14 µM)
IC80 (Cryptococcus neoformans [6]): 3.8 µg/mL (≈ 12.4 µM)
IC80 (Cryptococcus neoformans [7]): 11 µg/mL (≈ 35.9 µM)

CCC(C)n1ncn(-c2ccc(N3CCN(c4ccc(OC[C@H]5CO[C@](Cn6cncn6)(c6ccc(Cl)cc6Cl)O5)cc4)CC3)cc2)c1=O (stereo not given in full) [ITRACONAZOLE]
IC80 (Aspergillus fumigatus [1]): < 0.0004 µg/mL
IC80 (Aspergillus fumigatus [2]): 0.02 µg/mL (≈ 0.0283 µM)
IC80 (Candida albicans [3]): 0.0012 µg/mL (≈ 0.0017 µM)
IC80 (Candida albicans [4]): 0.03 µg/mL (≈ 0.0425 µM)
IC80 (Candida albicans [5]): 0.0056 µg/mL (≈ 0.00794 µM)
IC80 (Cryptococcus neoformans [6]): 0.022 µg/mL (≈ 0.0312 µM)
IC80 (Cryptococcus neoformans [7]): 0.046 µg/mL (≈ 0.0652 µM)
